In patent US11084826B2, “RSV antiviral pyrazolo- and triazolo-pyrimidine compounds” (Janssen Sciences Ireland Unlimited Company, priority 2015, dated 2021):

Experiments:
rgRSV224 virus = experiment: Antiviral activity: inhibition of rgRSV224 (GFP-expressing RSV) replication in HeLa cells, GFP expression read-out; type: cell-based, respiratory syncytial virus (RSV); conditions: human respiratory syncytial virus, HeLa, read-out: RSV HELA pEC50, rgRSV224 virus (MOI=1) in HeLa cells, GFP read-out (converted)
Procedure: (§1) Black 384-well clear-bottom microtiter plates (Corning, Amsterdam, The Netherlands) were filled via acoustic drop ejection using the echo liquid handler (Labcyte, Sunnyvale, Calif.). 200 nL of compound stock solutions (100% DMSO) were transferred to the assay plates. 9 serial 4-fold dilutions of compound were made, creating per quadrant the same compound concentration. The assay was initiated by adding 10 μL of culture medium to each well (RPMI medium without phenol red, 10% FBS-heat inactivated, 0.04% gentamycin (50 mg/mL). All addition steps are done by using a multidrop dispenser (Thermo Scientific, Erembodegem, Belgium). Next, rgRSV224 virus (MOI=1) diluted in culture medium was added to the plates. rgRSV224 virus is an engineered virus that includes an additional GFP gene (Hallak LK, Spillmann D, Collins PL, Peeples Me. Glycosaminoglycan sulfation requirements for respiratory syncytial virus infection; Journal of virology (2000), 74(22), 10508-13) and was in-licensed from the NIH (Bethesda, Md., USA). Finally, 20 μL of a HeLa cell suspension (3,000 cells/well) were plated. Medium, virus- and mock-infected controls were included in each test. The wells contain 0.05% DMSO per volume. Cells were incubated at 37° C. in a 5% CO2 atmosphere. Three days post-virus exposure, viral replication was quantified by measuring GFP expression in the cells by an in house developed MSM laser microscope (Tibotec, Beerse, Belgium). The EC50 was defined as the 50% inhibitory concentration for GFP expression. In parallel, compounds were incubated for three days in a set of white 384-well microtiter plates (Corning) and the cytotoxicity of compounds in HeLa cells was determined by measuring the ATP content of the cells using the ATPlite kit (Perkin Elmer, Zaventem, Belgium) according to the manufacturer's instructions. The CC50 was defined as the 50% concentration for cytotoxicity.

[1] = Cytotoxicity in HeLa cells, ATP content measured with the ATPlite kit; type: cell-based; conditions: human, TOX HELA pCC50
Procedure: as §1

Row | Compound | EC50 (rgRSV224 virus) [nM] | CC50 at 3 days [1] [nM] | melting point [°C]
1 | CC(C)Cc1cc(C(=O)N2CCCCC[C@H]2C)nc2cc(-c3ccc(-c4ccc(C(=O)O)cn4)cc3F)nn12 [Compound F41] | 36.3 | 22400 | 197.2
2 | C[C@@H]1CCCCCN1C(=O)c1cc(C2CCC2)n2nc(-c3cccc(/C=C/C(=O)O)c3F)cc2n1 [Compound M23] | 44.7 | > 100000 | 231.54
3 | CCc1cc(C(=O)N2CCCCCC2C)nc2cc(-c3c(F)cc(C(N)=O)cc3F)nn12 (stereo not shown) [Compound I27] | 251 | > 25100 | 160 to 165
4 | CCc1cc(C(=O)N2CCc3sccc3C2C)nc2cc(-c3ccc(C4C[C@H]4C(=O)O)cc3F)nn12 (single isomer, unassigned) [Compound O22] | 6.92 | 47900 | 228.98
5 | CCc1cc(C(=O)N2CCCCCC2C)nc2cc(-c3ccc(NC(=O)OCCO)cc3F)nn12 (stereo not shown) [Compound C4] | 110 | > 25100 | 175 to 180
6 | CC1CCCCCN1C(=O)c1cc(C(F)(F)F)n2nc(-c3ccc(C(N)=O)cc3F)cc2n1 (stereo not shown) [Compound I31] | 141 | > 25100 | 238 to 240
7 | CCc1cc(C(=O)N2CCCCC[C@H]2C)nc2cc(-c3ccc4c(C(=O)O)coc4c3F)nn12 [Compound F40] | 132 | 52500 | 213.87
8 | CCc1cc(C(=O)N2CCCCCC2C)nc2cc(-c3ccc(NC(=O)c4nccn4C)cc3F)nn12 (stereo not shown) [Compound E1] | 617 | > 25100 | 210 to 215
9 | C[C@@H]1CCCCCN1C(=O)c1cc(C2CC2)n2nc(-c3ccc(C4C[C@H]4C(=O)O)cc3F)cc2n1 (single isomer, unassigned) [Compound O7] | 39.8 | 45700 | 245.75
10 | CCc1cc(C(=O)N2CCCCC[C@H]2C)nc2cc(-c3ccc(C(N)=O)cc3)nn12 [Compound A26] | 195 | > 25100 | 160 to 165
11 | CCc1cc(C(=O)N2CCCCCC2C)nc2cc(-c3ccc4c(c3)CC(=O)N4C)nn12 (stereo not shown) [Compound A9] | 537 | > 25100 | 225 to 230
12 | C[C@@H]1c2ccccc2CCN1C(=O)c1cc(C2CC2)n2nc(-c3ccc(N4CC[C@H](C(=O)O)C4)cc3F)cc2n1 [Compound W38] | 5.75 | 46800 | 214
13 | CCc1cc(C(=O)N2CCCCCCC2C)nc2cc(-c3ccc(C(=O)O)cc3F)nn12 (stereo not shown) [Compound K4] | 275 | > 25100 | 133 to 134
14 | C[C@@H]1CCCCCN1C(=O)c1cc(N(C)C)n2nc(-c3ncc(/C=C/C(=O)O)cc3Cl)cc2n1 [Compound M12] | 4070 | > 25100 | 197 to 199
15 | C[C@@H]1CCCCCN1C(=O)c1cc(C2(C)CC2)n2nc(-c3ccc(C4C[C@H]4C(=O)O)cc3F)cc2n1 (mixture of isomers) [Compound O10] | 28.8 | 45700 | 333.75
16 | CCc1cc(C(=O)N2CCn3cccc3C2C)nc2cc(-c3ccc(C(=O)O)cc3F)nn12 (stereo not shown) [Compound K9] | 525 | > 25100 | 155 to 160
17 | CCc1cc(C(=O)N2CCCCCC2C)nc2cc(-c3ccc(N/C(=N/C#N)NCC4CCCO4)cc3F)nn12 (stereo not shown) [Compound B16] | 589 | > 25100 | 160 to 165
18 | CCc1cc(C(=O)N2CCCCCC2C)nc2cc(-c3ccc(-c4ncc(C)cn4)cc3F)nn12 (stereo not shown) [Compound F17] | 646 | > 25100 | 140 to 145
19 | CCc1cc(C(=O)N2CCCCCC2C)nc2cc(-c3ccc(S(=O)(=O)N(C)C)cc3F)nn12 (stereo not shown) [Compound P1] | 2820 | > 25100 | 120
20 | CCc1cc(C(=O)N2CCCCCC2C)nc2cc(-c3ccc(N/C(=N/C#N)NC4CC4)cc3)nn12 (stereo not shown) [Compound B18] | 1150 | > 25100 | 222 to 223
21 | CCc1cc(C(=O)N2CCCCCC2C)nc2cc(-c3ccc(N4C(=O)CCC4=O)cc3F)nn12 (stereo not shown) [Compound E26] | 407 | > 25100 | 190 to 195
22 | CCc1cc(C(=O)N2CCCCCC2C)nc2cc(-c3ccccc3F)nn12 (stereo not shown) [Compound A4] | 1020 | 45700 | 120 to 125

Row | Compound | EC50 (rgRSV224 virus) [nM] | CC50 at 3 days [1] [nM] | melting point [°C]
23 | CCc1cc(C(=O)N2CCCCCC2C)nc2cc(-c3ccc(N/C(=N/C#N)NC4CC4)cc3F)nn12 (stereo not shown) [Compound B17] | 407 | > 25100 | 225 to 230
24 | CCc1cc(C(=O)N2CCCCCC2C)nc2cc(-c3ccc(/C=C/C(N)=O)cc3F)nn12 (stereo not shown) [Compound N1] | 129 | > 25100 | 140 to 145
25 | CCc1cc(C(=O)N2CCCCCC2C)nc2cc(-c3ccc4c(c3)CC(=O)N4)nn12 (stereo not shown) [Compound A8] | 646 | > 25100 | 230 to 235
26 | CCc1cc(C(=O)N2Cc3ccccc3CC2C)nc2cc(-c3ccc(C(=O)O)cc3F)nn12 (stereo not shown) [Compound K3] | 1100 | > 25100 | 150 to 155
27 | CCc1cc(C(=O)N2CCCCC[C@H]2C)nc2cc(-c3ccc(C#N)cc3F)nn12 [Compound H4] | 661 | > 25100 | 96
28 | C[C@@H]1c2ccccc2CCN1C(=O)c1cc(C2(C)CC2)n2nc(-c3ccc(N4CC[C@H](C(=O)O)C4)cc3F)cc2n1 [Compound W34] | 11.2 | 43700 | 162.08
29 | C[C@@H]1CCCCCN1C(=O)c1cc(C2CCC2)n2nc(-c3ccc(C4C[C@H]4C(=O)O)cc3F)cc2n1 (mixture of isomers) [Compound O11] | 30.2 | 47900 | 249.19
30 | CCc1cc(C(=O)N2CCCCCC2C)nc2cc(-c3ccc(-c4cncnc4)cc3)nn12 (stereo not shown) [Compound F3] | 832 | > 100000 | 185
31 | CCc1cc(C(=O)N2CCCCC[C@H]2C)nc2cc(-c3ccc4ccc(C(=O)O)nc4c3F)nn12 [Compound F45] | 43.7 | 91200 | –
32 | CCCCC(C)N(C)C(=O)c1cc(CC)n2nc(-c3ccccc3F)cc2n1 (stereo not shown) [Compound A17] | 1510 | 40700 | –
33 | C[C@@H]1c2ccccc2CCN1C(=O)c1cc(C2CC2)n2nc(-c3cccc(/C=C/C(=O)O)c3F)cc2n1 [Compound M27] | 11.7 | – | 202.04
34 | C[C@@H]1CCCCCN1C(=O)c1cc(C2(C)COC2)n2nc(-c3ccc4c(c3F)OCC(C(=O)O)=C4)cc2n1 (racemic) [Compound F62] | 57.5 | > 25100 | –
35 | CNc1cc(C(=O)N2CCc3ccccc3[C@H]2C)nc2cc(-c3ccc(/C=C/C(=O)O)cc3F)nn12 [Compound M14] | 24 | 15800 | –
36 | C[C@@H]1CCCCCN1C(=O)c1cc(C2(C)CC2)n2nc(-c3cccc([C@H]4C[C@@H]4C(=O)O)c3F)cc2n1 (racemic) [Compound O9] | 110 | 89100 | –
37 | CCc1cc(C(=O)N2CCn3cccc3[C@H]2C)nc2cc(-c3ccc([C@H]4C[C@@H]4C(=O)O)cc3F)nn12 (relative stereo) [Compound O19] | 30.9 | 91200 | –
38 | CCc1cc(C(=O)N2CCCCC[C@H]2C)nc2cc(-c3ccc(NC4(C(=O)O)CC4)cc3F)nn12 [Compound W16] | 269 | > 100000 | –
39 | CCc1cc(C(=O)N2CCCCC[C@H]2C)nc2cc(-c3ccc(N4CCC[C@@H](C(=O)O)C4)cc3F)nn12 [Compound W4] | 105 | 89100 | –
40 | CCc1cc(C(=O)N2CCCCC[C@H]2C)nc2cc(-c3ccc(N(C)[C@H]4C[C@H](C(=O)O)C4)cc3F)nn12 (racemic) [Compound W22] | 45.7 | 87100 | –
41 | CCc1cc(C(=O)N2CCCCCC2C)nc2cc(-c3ccc(-c4cn[nH]c4)cc3F)nn12 (stereo not shown) [Compound F6] | 355 | > 25100 | –
42 | CCc1cc(C(=O)N2CCCCCC2C)nc2cc(-c3ccc(-c4cnn(C5CC5)c4)cc3F)nn12 (stereo not shown) [Compound F12] | 1380 | > 25100 | –
43 | CCc1cc(C(=O)N2CCCCCC2C)nc2cc(-c3ccc(-c4cccnc4)cc3)nn12 (stereo not shown) [Compound F2] | 2950 | 38900 | –
44 | CCc1cc(C(=O)N2CCCCC[C@H]2C)nc2cc(-c3ccc(/C=C/C(=O)O)c(OC)c3F)nn12 [Compound M32] | 178 | 66100 | –
